Experimental data: ChEMBL document CHEMBL6153036, “Genome-informed Discovery of Monchicamides A-K: Cyanobactins from the Microcoleaceae Cyanobacterium LEGE 16532” (J Nat Prod, 2025)
Active and inactive are the calls of the source. Where a SMILES comes first, the peptide text is derived from it. [ ]: non-standard residue; d: D form. The star is where a group is joined. ξ: configuration not given here. ξIle = CC[C@H](C)C(N)C(=O)O; Prenyl = CC(C)=CC*

How the values were obtained:
[1] = test system: Dictyostelium discoideum; assay: Antiamoebic activity against Dictyostelium discoideum assessed as cell viability at 10 uM incubated for 24 hrs by Alamar blue staining based assay; type: functional, organism-based
[2] = test system: SH-SY5Y; assay: Cytotoxicity against human SH-SY5Y cells assessed as cell viability at 10 ug/mL incubated for 48 hrs by MTT assay; type: functional, cell-based; conditions: dose 10.0 µg/ml
[3] = test system: Acanthamoeba castellanii; assay: Antiamoebic activity against Acanthamoeba castellanii assessed as cell viability at 10 uM incubated for 24 hrs by Alamar blue staining based assay; type: functional, organism-based
[4] = test system: Bacillus subtilis; assay: Antibacterial activity against Bacillus subtilis ATCC 6633 assessed as bacterial growth inhibition at 1 mg/mL preincubated for 30 mins at room temperature followed by incubation at 37 degreeC for 24 hrs by agar disc-diffusion method; type: functional, organism-based; conditions: time 24.5 hrs
[5] = test system: Acanthamoeba polyphaga; assay: Antiamoebic activity against Acanthamoeba polyphaga assessed as cell viability at 10 uM incubated for 24 hrs by Alamar blue staining based assay; type: functional, organism-based
[6] = test system: HepG2; assay: Cytotoxicity against human HepG2 cells assessed as cell viability at 10 ug/mL incubated for 48 hrs by MTT assay; type: functional, cell-based; conditions: dose 10.0 µg/ml
[7] = test system: Candida albicans; assay: Antifungal activity against Candida albicans ATCC 10231 assessed as fungal growth inhibition at 1 mg/mL preincubated for 30 mins at room temperature followed by incubation at 37 degreeC for 24 hrs by agar disc-diffusion method; type: functional, organism-based; conditions: time 24.5 hrs
[8] = test system: Staphylococcus aureus; assay: Antibacterial activity against Staphylococcus aureus ATCC 29213 assessed as bacterial growth inhibition at 1 mg/mL preincubated for 30 mins at room temperature followed by incubation at 37 degreeC for 24 hrs by agar disc-diffusion method; type: functional, organism-based; conditions: time 24.5 hrs
[9] = test system: HCT-116; assay: Cytotoxicity against human HCT-116 cells assessed as cell viability at 10 ug/mL incubated for 48 hrs by MTT assay; type: functional, cell-based; conditions: dose 10.0 µg/ml
[10] = test system: Salmonella typhimurium; assay: Antibacterial activity against Salmonella typhimurium ATCC 25241 assessed as bacterial growth inhibition at 1 mg/mL preincubated for 30 mins at room temperature followed by incubation at 37 degreeC for 24 hrs by agar disc-diffusion method; type: functional, organism-based; conditions: Salmonella enterica subsp. enterica serovar Typhimurium, time 24.5 hrs
[11] = test system: Escherichia coli; assay: Antibacterial activity against Escherichia coli ATCC 25922 assessed as bacterial growth inhibition at 1 mg/mL preincubated for 30 mins at room temperature followed by incubation at 37 degreeC for 24 hrs by agar disc-diffusion method; type: functional, organism-based; conditions: time 24.5 hrs

Measured: Activity

CC[C@H](C)C1NC(=O)[C@@H]2CCCN2C(=O)[C@H](Cc2ccc(OCC=C(C)C)cc2)NC(=O)[C@@H]2CCCN2C(=O)[C@H](C(C)C)NC(=O)CNC(=O)[C@H](C(C)C)NC(=O)CNC1=O (stereo partly specified) (cyclo(GVGVPY(Prenyl)P[ξIle]))
inactive: all assays above
